Counter-ions that a name gives are not always drawn. Like-named read-outs stand apart in the source and are kept apart here.
How the values were obtained:
[1] = tested on: radioactive calcium uptake; conditions: cited from earlier work
rabbit aortic rings = conditions: cited from earlier work
[2] = tested on: smooth muscle (longitudinal muscle of ileum); test: Enhancement of Calcium Ion Evoked Smooth Muscle Contractility (isolated ileum longitudinal muscle); conditions: guinea pig ileum; for Concentration at Maximum Enhancement: concentration of compound that produced the maximum enhancement; for Maximum Enhancement (% maximum contraction): 6 min; for minimal effective concentration: lowest concentration that produced enhancement of calcium evoked contraction, 37° C, read-out: Threshold for Enhancement
Source text: This test is a measure of the ability of test compounds to enhance muscle contraction caused by calcium ions. A sample of muscle was placed under tension in a device to measure its length and contracted by addition of potassium chloride (to activate the calcium channels) followed by addition of a calcium ion solution. The addition of a calcium agonist should cause the influx of additional calcium ions and thereby cause further contraction of the muscle. The lowest concentration of test compound necessary to evoke this additional contraction was measured, as were the maximum contraction obtained and the concentration at which it was reached
The ileum of male albino guinea pigs were cut into 3-4 cm segments. The longitudinal muscle, with myenteric plexus attached, was separated from the circular muscle. […] Each preparation was suspended under resting tension of 0.3 g. The tissues were switched to calcium free Tryodes solution for 24 minutes. with complete replacement of the solution every four minutes. Potassium chloride was then added to produce a bath concentration of […], and calcium solutions were cumulatively added to increase the bath calcium ion concentration to 0.2-8.0 mM. The tissues were re-equilibrated in normal Tyrodes and then calcium free Tyrodes. Enhancement of calcium evoked contractions in the presence of drug were determined by repeating the cumulative addition procedure after the tissues were exposed to the drug for six minutes. Responses were expressed relative to the maximum contraction elicited by calcium ion in the absence of the drug.

[3] = tested on: voltage sensitive calcium channels; test: Potentiation of Calcium Influx across the Membrane (Quin 2 fluorescence); format: cell-based, murine; conditions: NG108-15 (NGI08-15 [sic]) cells, KCl 50 mM depolarization, 37° C, percent enhancement over potassium chloride stimulation
Procedure: This test system was developed to evaluate the relative ability of compounds to potentiate calcium influx into cells via voltage sensitive calcium channels. The technique employs a high calcium affinity fluorescent dye to monitor changes in intracellular free calcium concentrations. The cells are incubated with a protected non-fluorescent form of the calcium sensitive dye. This compound permeates the cell wall and enters the cell. There it is transformed by enzymes into the fluorescent dye Quin 2 which cannot leave the cell Quin 2 has a high affinity for calcium ions and when calcium is bound to the dye, the complex fluoresces, the intensity of the fluorescence being proportional to the concentration of calcium ions. Voltage sensitive calcium channels are activated by the addition of potassium chloride to the media and calcium ion influx occurs. The increase in fluorescence is measured, giving a relative measure of calcium influx, the control value. In a separate cuvette, both potassium chloride and the test compound are administered to the cells and the fluorescence measured. A calcium agonist should increase influx of calcium into the cells and therefore an increase in the fluorescence. The percent stimulation above control is obtained from the increase in fluorescence.
Differentiated murine neuronal (neuroblastoma x glioma) hybrid cells (NGI08-15) which contain an abundance of voltage dependant calcium channels were used as a source of tissue for testing these compounds.
Briefly, NGI08-15 cells were cultured in 10% CO2 at 37° C. in Dulbecco's modified Eagle's medium (DMEM) supplemented with glutamine (1.0 mM). fetal bovine serum (FBS; 10%). and hypoxanthine (100 μM), aminopterin (1.0 μM). and thymidine (20 μM). Differentiation was induced by treatment with dibutyl cyclic AMP (4 days, 1.0 mM) [L. Noronha-Blob, C. […] Dispersed cells (5×10^6 cells/mL) were incubated with quin 2 acetoxymethyl ester (quin 2-AM, the calcium specific dye) [100 μM. in dimethyl sulfoxide (DMSO)] for 60 minutes at 37° C. The control suspensions received only DMSO. Cells were then diluted in ice-cold media, centrifuged and washed twice (1,500×g, 3 minutes) in ice-cold HEPES buffer (composition: 130 mM NaCl, 5.0 mM KCl, 6.0 mM glucose, 1.0 mM MgCl2, 1.0 mM CaCl2, and 20 mM HEPES, pH 7 4).
The change in fluorescence was calculated from the difference between final and initial values. The results were expressed as a percent enhancement over potassium chloride stimulation (control).

[4] = in words; cited from earlier work
[5] = tested on: extracellular calcium ions; conditions: in words, dose-dependent; cited from earlier work
[6] = tested on: isolated rabbit aortic strips; conditions: cited from earlier work
[7] = tested on: isolated guinea pig atrium; conditions: cited from earlier work
[8] = increase above control as percent of maximum control calcium evoked contraction, 6 min drug exposure

SMILES	Concentration at Maximum Enhancement [2] [nM]	Maximum Enhancement (% maximum contraction) [2, 8] [%]	minimal effective concentration ([2]; 6 min drug exposure) [nM]	% Stimulation Above Control [3] [%]	also measured
CC1=C(C(=O)OC(C)C)C(c2cccc3nonc23)C([N+](=O)[O-])=C(C)N1 (racemic) [Example 202-792, 2-propyl 4-(4-benzofurazanyl)-1,4-dihydro-2,6-dimethyl-5-nitropyridine-3-carboxylate]					radioactive calcium uptake ([1]; high levels of depolarization): inhibited contraction and radioactive calcium uptake at high levels of depolarization; contraction of aortic rings (rabbit aortic rings; high levels of depolarization): inhibited contraction; contraction of aortic rings (rabbit aortic rings; low levels of depolarization): enhanced contractions of rabbit aortic rings at low levels of depolarization
CC1=C(C(=O)OC2CN3CCC2CC3)C(c2cccc([N+](=O)[O-])c2)C([N+](=O)[O-])=C(C)N1 (single isomer, unassigned) [(+a, +b), (+a, +b)-1-Azabicyclo[2.2.2]oct-3-yl 1,4-Dihydro-2,6-dimethyl-4-(3-nitrophenyl)-5-nitropyridine-3-carboxylate fumarate]	100	11	10	20	
CC1=C(C(=O)OC2CN3CCC2CC3)C(c2cccc([N+](=O)[O-])c2)C([N+](=O)[O-])=C(C)N1 (single isomer, unassigned) [(+a, -b), (+a, -b)-1-Azabicyclo[2.2.2]oct-3-yl 1,4-Dihydro-2,6-dimethyl-4-(3-nitrophenyl)-5-nitropyridine-3-carboxylate fumarate]	10	15	10	31	
CC1=C(C(=O)OC2CN3CCC2CC3)C(c2cccc([N+](=O)[O-])c2)C([N+](=O)[O-])=C(C)N1 (single isomer, unassigned) [(-a, +b), (-a, +b)-1-Azabicyclo[2.2.2]oct-yl 1.4-Dihydro-2,6-dimethyl-4-(3-nitrophenyl)-5-nitropyridine-3-carboxylate fumarate]	1000	13	100	25	
CC1=C(C(=O)OC2CN3CCC2CC3)C(c2cccc([N+](=O)[O-])c2)C([N+](=O)[O-])=C(C)N1 (single isomer, unassigned) [(-a, -b), (-a, -b)-1-Azabicyclo[2.2.2]oct-3-yl 1,4-Dihydro-2,6-dimethyl-4-(3-nitrophenyl)-5-nitropyridine-3-carboxylate fumarate]	10	18	10	10	
COC(=O)C1=C(C)NC(C)=C([N+](=O)[O-])C1c1ccccc1C(F)(F)F (centres unmarked) [BAY K 8644, Methyl 1,4-dihydro-2,6-dimethyl-5-nitro-4-(2-trifluoromethylphenyl)-3-pyridine carboxylate]	100			38	inotropic effect [4]: potent positive inotropic effects; Emax ([2]; Cavia porcellus, 0.1 h, increase above control as percent of maximum control calcium evoked contraction, 6 min drug exposure): 38%; minimal effective concentration ([2]; Cavia porcellus, 0.1 h, 6 min drug exposure): 10 nM
CCOC(=O)C1=C(C)NC2=C(C(=O)OC2)C1c1ccccc1OC(F)F (centres unmarked) [CGP 28392, ethyl 4-[2-(difluoromethoxy)phenyl]-1,4,5,7-tetrahydro-2-methyl-5-oxofuro[3,4-b]pyridine-3-carboxylate]					concentration of extracellular calcium ions [5]: increase in a dose-dependent manner the concentration of extracellular calcium ions
CC1=C(C(=O)OC(C)C)[C@@H](c2cccc3nonc23)C([N+](=O)[O-])=C(C)N1 [R enantiomer]					radioactive calcium uptake ([1]; single enantiomer, in words): inhibited contraction and radioactive calcium uptake; contraction (rabbit aortic rings; single enantiomer, in words): inhibited contraction; stimulant activity (rabbit aortic rings; single enantiomer, in words): no stimulant activity
CC1=C(C(=O)OC(C)C)[C@H](c2cccc3nonc23)C([N+](=O)[O-])=C(C)N1 [S enantiomer]					radioactive calcium uptake ([1]; single enantiomer, in words): enhanced radioactive calcium uptake dependently at all levels of depolarization; concentration-response curve for depolarization-induced contraction (rabbit aortic rings; single enantiomer, in words): shifted the concentration-response curve for depolarization-induced contraction in an almost parallel fashion to the left; contraction (rabbit aortic rings; single enantiomer, in words): enhanced contraction
CC1=C(C(=O)Nc2ccccc2)C(c2ccccc2Cl)C(C(=O)OCCc2ccccn2)=C(C)N1 (centres unmarked) [YC-170]					contraction of aortic strips ([6]; isolated rabbit aortic strips): induced contraction; relaxant effect on aorta ([6]; precontracted by a high concentration of potassium): relaxant effect; inotropic effect in atrium ([7]; isolated guinea pig atrium): positive inotropic effect; contractile tension in atrium ([7]; partially depolarized with a low concentration of potassium): decrease in contractile tension
